Columns and labels:
[1] = dose level 6, epirubicin plus docetaxel every 3 weeks (Schedule A) with pegfilgrastim support
Description: Patients were from a national clinical trial hosted by the National Cancer Institute of Canada Clinical Trials Group (referred to as group “MA.22”) and were treated with increasing dose levels of both epirubicin and docetaxel, with pegfilgrastim support to reduce neutropenia associated with this therapy.

[2] = system: breast cancer; details: after anthracycline-based chemotherapy; cited from earlier work

| SMILES | maximum tolerated dose [1] [mg/m^2] | breast cancer patients that respond [2] [%] |
| --- | --- | --- |
| CC(=O)O[C@@]12CO[C@@H]1C[C@H](O)[C@@]1(C)C(=O)[C@H](O)C3=C(C)[C@@H](OC(=O)[C@H](O)[C@@H](NC(=O)OC(C)(C)C)c4ccccc4)C[C@@](O)([C@@H](OC(=O)c4ccccc4)[C@H]21)C3(C)C [docetaxel] | 75 | 35.4 |
| COc1cccc2c1C(=O)c1c(O)c3c(c(O)c1C2=O)C[C@@](O)(C(=O)CO)C[C@@H]3O[C@H]1C[C@H](N)[C@@H](O)[C@H](C)O1 [epirubicin] | 105 |  |
| CC(=O)O[C@H]1C(=O)[C@@]2(C)[C@H]([C@H](OC(=O)c3ccccc3)[C@]3(O)C[C@H](OC(=O)[C@H](O)[C@@H](NC(=O)c4ccccc4)c4ccccc4)C(C)=C1C3(C)C)[C@]1(OC(C)=O)CO[C@@H]1C[C@@H]2O [paclitaxel] |  | 33 |

Source: US20100317001A1, “METHOD OF USING TUMOUR RNA INTEGRITY TO MEASURE RESPONSE TO CHEMOTHERAPY IN CANCER PATIENTS” (LAURENTIAN UNIVERSITY, priority 2007, published 2010)
